Experiments:
Type in all cases: cell-based
human TLR7 = target: T1, human TLR7 (Homo sapiens, UniProt Q9NYK1); assay: TLR7 inhibition reporter assay (HEK-Blue cells, SEAP reporter, gardiquimod stimulation); conditions: HEK-Blue cells overexpressing human TLR7, SEAP reporter, gardiquimod 7.5 μM
T1 construct: host or cells: HEK-Blue cells (HEK293-derived reporter line)
T1 sequence (Q9NYK1 27-1049): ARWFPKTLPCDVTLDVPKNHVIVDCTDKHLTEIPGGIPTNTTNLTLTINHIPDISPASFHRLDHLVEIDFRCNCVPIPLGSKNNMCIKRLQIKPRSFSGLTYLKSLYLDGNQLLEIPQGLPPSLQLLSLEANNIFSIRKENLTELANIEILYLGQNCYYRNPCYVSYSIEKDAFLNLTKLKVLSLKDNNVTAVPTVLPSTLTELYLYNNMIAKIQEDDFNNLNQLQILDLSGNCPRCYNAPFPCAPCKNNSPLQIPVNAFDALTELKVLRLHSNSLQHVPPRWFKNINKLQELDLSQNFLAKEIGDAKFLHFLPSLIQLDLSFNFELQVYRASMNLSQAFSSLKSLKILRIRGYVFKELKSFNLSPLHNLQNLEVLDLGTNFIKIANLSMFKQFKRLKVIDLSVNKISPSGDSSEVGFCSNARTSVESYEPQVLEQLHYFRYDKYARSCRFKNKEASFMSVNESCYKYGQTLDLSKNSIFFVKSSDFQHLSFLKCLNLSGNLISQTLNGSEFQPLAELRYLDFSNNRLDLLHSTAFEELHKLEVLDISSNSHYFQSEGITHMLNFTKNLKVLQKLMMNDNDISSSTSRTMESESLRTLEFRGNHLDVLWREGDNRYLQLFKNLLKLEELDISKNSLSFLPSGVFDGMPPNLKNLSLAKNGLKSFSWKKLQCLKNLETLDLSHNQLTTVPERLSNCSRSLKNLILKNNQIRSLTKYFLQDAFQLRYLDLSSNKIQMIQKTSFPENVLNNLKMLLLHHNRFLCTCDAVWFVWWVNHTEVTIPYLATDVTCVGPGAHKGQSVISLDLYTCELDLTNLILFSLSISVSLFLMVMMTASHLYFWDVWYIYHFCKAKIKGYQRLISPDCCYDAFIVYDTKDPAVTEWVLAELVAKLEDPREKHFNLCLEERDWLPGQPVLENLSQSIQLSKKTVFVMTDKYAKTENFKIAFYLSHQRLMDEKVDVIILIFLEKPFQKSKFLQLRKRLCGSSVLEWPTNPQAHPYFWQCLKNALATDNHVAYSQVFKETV
Outline: (§1)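 Agonists (final): TLR7 gardiquimod 7.5 μM; TLR8 R848 15.9 μM; TLR9 ODN2006 5 nM. HEK-Blue reporter cells, 30 min RT compound pre-incubation, 0.05 nM–50 μM dose range, 22 h at 37 °C, colorimetric SEAP detection medium. % inhibition relative to agonist+DMSO and known-inhibitor wells.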

human TLR8 = target: T2, human TLR8 (Homo sapiens, UniProt Q9NR97); assay: TLR8 inhibition reporter assay (HEK-Blue cells, SEAP reporter, R848 stimulation); conditions: HEK-Blue cells overexpressing human TLR8, SEAP reporter, R848 15.9 μM
T2 construct: host or cells: HEK-Blue cells (HEK293-derived reporter line)
T2 sequence (Q9NR97 27-1041): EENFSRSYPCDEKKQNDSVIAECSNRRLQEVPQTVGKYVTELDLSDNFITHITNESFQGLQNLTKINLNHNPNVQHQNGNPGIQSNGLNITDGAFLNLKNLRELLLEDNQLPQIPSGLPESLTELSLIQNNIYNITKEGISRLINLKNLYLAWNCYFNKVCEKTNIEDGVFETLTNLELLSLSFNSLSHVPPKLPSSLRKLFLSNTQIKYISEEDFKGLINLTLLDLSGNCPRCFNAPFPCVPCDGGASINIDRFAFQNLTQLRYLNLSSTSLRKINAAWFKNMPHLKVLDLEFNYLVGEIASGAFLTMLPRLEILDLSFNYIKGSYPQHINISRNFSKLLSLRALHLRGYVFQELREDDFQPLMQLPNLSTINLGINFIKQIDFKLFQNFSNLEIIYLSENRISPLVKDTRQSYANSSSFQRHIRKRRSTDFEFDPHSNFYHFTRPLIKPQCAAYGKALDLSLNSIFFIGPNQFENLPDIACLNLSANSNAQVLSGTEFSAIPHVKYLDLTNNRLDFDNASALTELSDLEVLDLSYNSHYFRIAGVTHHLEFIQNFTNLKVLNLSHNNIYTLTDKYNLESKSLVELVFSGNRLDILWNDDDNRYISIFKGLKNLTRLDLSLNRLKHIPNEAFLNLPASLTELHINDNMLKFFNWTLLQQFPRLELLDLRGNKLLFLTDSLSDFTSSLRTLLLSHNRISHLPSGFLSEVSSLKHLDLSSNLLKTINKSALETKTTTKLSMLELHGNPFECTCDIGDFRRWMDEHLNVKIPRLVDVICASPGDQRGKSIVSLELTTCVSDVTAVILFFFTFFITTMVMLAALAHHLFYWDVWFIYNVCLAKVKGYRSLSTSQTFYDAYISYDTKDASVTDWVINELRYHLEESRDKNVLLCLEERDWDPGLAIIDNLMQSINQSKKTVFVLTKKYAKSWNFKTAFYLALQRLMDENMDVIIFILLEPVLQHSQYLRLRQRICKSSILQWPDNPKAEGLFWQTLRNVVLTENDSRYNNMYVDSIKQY
Outline: as §1

human TLR9 = target: T3, human TLR9 (Homo sapiens, UniProt Q9NR96); assay: TLR9 inhibition reporter assay (HEK-Blue cells, SEAP reporter, ODN2006 stimulation); conditions: HEK-Blue cells overexpressing human TLR9, SEAP reporter, ODN2006 5 nM
T3 construct: host or cells: HEK-Blue cells (HEK293-derived reporter line)
T3 sequence (Q9NR96 26-1032): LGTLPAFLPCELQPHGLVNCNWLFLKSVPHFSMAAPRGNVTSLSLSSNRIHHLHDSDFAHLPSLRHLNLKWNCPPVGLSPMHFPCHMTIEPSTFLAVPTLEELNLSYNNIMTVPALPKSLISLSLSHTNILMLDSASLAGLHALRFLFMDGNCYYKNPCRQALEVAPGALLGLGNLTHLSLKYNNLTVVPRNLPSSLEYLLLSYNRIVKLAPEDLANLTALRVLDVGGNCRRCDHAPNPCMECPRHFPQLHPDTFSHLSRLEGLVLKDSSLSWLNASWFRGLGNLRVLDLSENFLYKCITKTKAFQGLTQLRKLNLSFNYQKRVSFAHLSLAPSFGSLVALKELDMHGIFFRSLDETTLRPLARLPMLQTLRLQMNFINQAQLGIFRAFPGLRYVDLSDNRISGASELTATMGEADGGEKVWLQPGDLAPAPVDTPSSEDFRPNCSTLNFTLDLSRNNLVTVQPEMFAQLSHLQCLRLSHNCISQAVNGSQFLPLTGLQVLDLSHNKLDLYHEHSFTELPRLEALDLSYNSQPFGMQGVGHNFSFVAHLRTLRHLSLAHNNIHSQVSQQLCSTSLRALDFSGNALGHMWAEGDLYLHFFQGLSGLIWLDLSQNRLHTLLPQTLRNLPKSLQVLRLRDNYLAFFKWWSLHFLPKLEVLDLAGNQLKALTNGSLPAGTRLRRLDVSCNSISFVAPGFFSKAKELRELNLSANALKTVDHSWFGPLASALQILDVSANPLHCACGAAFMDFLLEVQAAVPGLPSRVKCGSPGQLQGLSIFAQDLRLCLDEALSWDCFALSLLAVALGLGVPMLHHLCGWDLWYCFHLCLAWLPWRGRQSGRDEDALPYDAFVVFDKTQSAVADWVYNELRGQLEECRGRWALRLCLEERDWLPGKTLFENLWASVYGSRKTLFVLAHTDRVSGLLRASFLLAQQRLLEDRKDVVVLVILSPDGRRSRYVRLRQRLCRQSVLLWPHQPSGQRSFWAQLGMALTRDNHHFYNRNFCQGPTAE
Outline: as §1

Row | SMILES | IC50 (human TLR7) [nM] | IC50 (human TLR8) [nM] | IC50 (human TLR9) [nM]
1 | CC(=O)NCC(=O)N1CCC(c2ccc3[nH]c(-c4ccnc5[nH]ncc45)c(C(C)C)c3c2)CC1 [Example 567, N-(2-(4-(3-isopropyl-2-(1H-pyrazolo[3,4-b]pyridin-4-yl)-1H-indol-5-yl)piperidin-1-yl)-2-oxoethyl)acetamide] | < 100 | 100 to 1000 | > 50000
2 | Cc1c(-c2[nH]c3ccc(C4CCNCC4)cc3c2C(C)C)c2cccnc2n1C [Example 37, 3-(3-isopropyl-5-(piperidin-4-yl)-1H-indol-2-yl)-1,2-dimethyl-1H-pyrrolo[2,3-b]pyridine] | < 100 | < 100 | 1000 to 50000
3 | CC(C)c1c(-c2ccc3ncsc3n2)[nH]c2ccc(C3CCNCC3)cc12 [Example 209, 5-(3-isopropyl-5-(piperidin-4-yl)-1H-indol-2-yl) thiazolo[5,4-b]pyridine] | < 100 | < 100 | 1000 to 50000
4 | CC(C)c1c(-c2ccnc3[nH]ncc23)[nH]c2ccc(C3CCNC(=O)C3)cc12 (stereo not drawn) [Example 248, 4-(3-Isopropyl-2-(1H-pyrazolo[3,4-b]pyridin-4-yl)-1H-indol-5-yl)piperidin-2-one] | 100 to 1000 | < 100 | > 50000
5 | CC(C)c1c(-c2ccc3cnnn3c2)[nH]c2ccc(C3CCN(C4CCOCC4)CC3)cc12 [Example 695, 6-(3-isopropyl-5-(1-(tetrahydro-2H-pyran-4-yl)piperidin-4-yl)-1H-indol-2-yl)-[1,2,3]triazolo[1,5-a]pyridine] | 100 to 1000 | < 100 | 100 to 1000
6 | Cc1cc(-c2[nH]c3ccc(C4CCNCC4)cc3c2C(C)C)cn2cc(C(=O)NC3CC3)nc12 [Example 262, N-cyclopropyl-6-(3-isopropyl-5-(piperidin-4-yl)-1H-indol-2-yl)-8-methylimidazo[1,2-a]pyridine-2-carboxamide] | < 100 | < 100 | 100 to 1000
7 | Cc1cc(-c2[nH]c3ccc(C4CCN(C5CCOCC5)CC4)cc3c2C(C)C)cn2nnnc12 [Example 698, 6-(3-isopropyl-5-(1-(tetrahydro-2H-pyran-4-yl)piperidin-4-yl)-1H-indol-2-yl)-8-methyltetrazolo[1,5-a]pyridine] | < 100 | < 100 | 1000 to 50000
8 | CCc1c(-c2ccnc3[nH]ncc23)[nH]c2ccc(C3CCN(Cc4ncco4)CC3)cc12 [Example 867, 2-((4-(3-ethyl-2-(1H-pyrazolo[3,4-b]pyridin-4-yl)-1H-indol-5-yl)piperidin-1-yl)methyl)oxazole] | 100 to 1000 | 100 to 1000 | 1000 to 50000

Other lines, results leading:

Row | IC50 (human TLR7) [nM] | IC50 (human TLR8) [nM] | IC50 (human TLR9) [nM] | SMILES
9 | < 100 | < 100 | 100 to 1000 | Cc1cc(-c2[nH]c3ccc(C4CCNCC4)cc3c2C(C)C)cc2cncn12 [Example 164, 7-(3-isopropyl-5-(piperidin-4-yl)-1H-indol-2-yl)-5-methylimidazo[1,5-a]pyridine]
10 | < 100 | < 100 | 1000 to 50000 | Cc1cc(-c2[nH]c3ccc(C4CCN(CC(N)=O)CC4)cc3c2C(C)C)cn2nnnc12 [Example 311, 2-(4-(3-isopropyl-2-(8-methyltetrazolo[1,5-a]pyridin-6-yl)-1H-indol-5-yl)piperidin-1-yl) acetamide]
11 | < 100 | < 100 | 100 to 1000 | Cc1cc(-c2[nH]c3ccc(C4CCN(CC#N)CC4)cc3c2C(C)C)cc2cnnn12 [Example 964, 2-(4-(3-isopropyl-2-(7-methyl-[1,2,3]triazolo[1,5-a]pyridin-5-yl)-1H-indol-5-yl)piperidin-1-yl)acetonitrile]
12 | 100 to 1000 | 1000 to 50000 | 1000 to 50000 | CC(C)c1c(-c2cnc3nn(C)cc3c2)[nH]c2ccc(C3CCN(CC(C)(C)O)CC3)cc12 [Example 765, 1-(4-(3-isopropyl-2-(2-methyl-2H-pyrazolo[3,4-b]pyridin-5-yl)-1H-indol-5-yl)piperidin-1-yl)-2-methylpropan-2-ol]
13 | 100 to 1000 | < 100 | 100 to 1000 | Cc1n[nH]c2nccc(-c3[nH]c4ccc(C5CCN(Cc6cnc[nH]6)CC5)cc4c3C(C)C)c12 [Example 875, 4-(5-(1-((1H-imidazol-5-yl)methyl)piperidin-4-yl)-3-isopropyl-1H-indol-2-yl)-3-methyl-1H-pyrazolo[3,4-b]pyridine]
14 | < 100 | < 100 | 1000 to 50000 | Cc1cc(-c2[nH]c3ccc(C4CCN(C(=O)CN(C)C)CC4)cc3c2C(C)C)cc2ccnn12 [Example 570, 2-(dimethylamino)-1-(4-(3-isopropyl-2-(7-methylpyrazolo[1,5-a]pyridin-5-yl)-1H-indol-5-yl)piperidin-1-yl)ethan-1-one]
15 | < 100 | < 100 | 1000 to 50000 | CCOc1cc(-c2[nH]c3ccc(C4CCN(CC(=O)NC)CC4)cc3c2C(C)C)cc2ncnn12 [Example 351, 2-(4-(2-(5-ethoxy-[1,2,4]triazolo[1,5-a]pyridin-7-yl)-3-isopropyl-1H-indol-5-yl)piperidin-1-yl)-N-methylacetamide]

From patent US11739098B2 (BRISTOL-MYERS SQUIBB COMPANY, priority 2017, dated 2023)
